From patent US20160228575A1, “NARINGENIN COMPLEXES AND METHODS OF USE THEREOF” (THE GENERAL HOSPITAL CORPORATION, priority 2008, published 2016)
Entries after “also recorded” stand apart in the source; their conditions may differ.

Key:
Caco-2 cell monolayer = assay: Transport across Caco-2 cell monolayer (apical to basolateral); format: in vitro ADME; conditions: human, Caco-2, 2 h, pH 7.35
Description: The Caco-2 cell line is an immortalized line of human epithelial colorectal adenocarcinoma cells, which is widely used by the pharmaceutical industry to predict the absorption rate of candidate drug compounds across the intestinal epithelial cell barrier. Caco-2 cells were grown and allowed to form confluent monolayers on transwell filters for 21 days as previously described^39. In detail, Caco-2, human epithelial colorectal adenocarcinoma cells were cultured in tissue culture flasks (Becton Dickinson and Co., Lincoln Park, N.J.). The growth medium was Dulbecco's modified Eagle's medium supplemented with 10% fetal bovine serum, 1% nonessential amino acids, and 4 mM glutamine without antibiotics. The monolayer cultures were grown in a CO2 incubator (5% CO2) at 37° C. The cells were harvested with 0.25% trypsin and 0.2% EDTA (0.5 to 1 min at 37° C.), resuspended, and seeded into a new flask. Cells between 30 to 53 passages were used.
For the transport studies, Caco-2 cells were seeded on Transwell (0.4-μm pore size, 1-cm^2 growth area; Corning Costar Co.) at a cell density of 1×10^5 cells/filter. Cell growth and maintenance was kept as previously described (98). […] The concentrations of Naringenin or HPbCD-Neringenin were determined as described and plotted as a concentration on the basolateral side vs. time. […]

[1] = Intraperitoneal injection of naringenin to SCID mice: survival, liver enzymes, triglycerides; format: in vivo
Description: Male SCID mice (8 weeks old, 20-25 g) were obtained from Charles River Laboratories (Wilmington, Mass.). Animals were treated in accordance with NIH guidelines, and MGH Subcommittee on Research Animal Care. The mice were allowed free access to laboratory chow and water ad labium. Naringenin was dissolved in 0.5% Tween 20 diluted in saline and given by intraperitoneal injection. Two days following the treatment, animals were sacrificed and blood was withdrawn by cardiac puncture. AST and ALT enzyme levels were assessed as described above. Total triglycerides were measured using a kit purchased from Sigma-Aldrich Chemicals (St. Louis, Mo.) according to the manufacturer's instructions.
To assess naringenin ability to reduce circulating vLDL levels we measured total triglycerides levels in animal plasma.

actin = assay: Actin mRNA level by qPCR in infected Huh7.5.1 cells; format: cell-based, human; conditions: naringenin 24 hours
Description: Virus samples collected in each experiment were filtered with a 0.45 μm filter and a volume of 100 μL for each sample was heated at 95° C. for 45 min. The reverse transcription reaction step was performed on a Mastercycler epgrdientS (Eppendorf) instrument using Omniscript and Sensiscript RT Kits (Qiagen). Real time PCR was performed on a Light Cycler LC-24 (Idaho Technology), using SuperScript™ III Platinum® CellsDirect Two-Step qRT-PCR Kits (Invitrogen) for quantitative PCR. For reverse transcription step, 2 μL of sample without RNA extraction were used. For real time PCR, 1 μL of the reverse transcription reactions was used. All reactions were performed according to the manufacturer's instructions using the primers detailed in Table 1.

## O=C1C[C@@H](c2ccc(O)cc2)Oc2cc(O)cc(O)c21 [naringenin]
Caco-2 cell monolayer
  maximal naringenin concentration in basal chamber: 0.05 mM
[1]; 48 hrs following i.p. injection, all doses
  ALT levels in plasma: no elevation
[1]; 48 hrs following i.p. injection, even at the highest dose (1500 mg/kg)
  AST levels in plasma: under 100 U/l
[1]; following i.p. naringenin injection
  total triglycerides in animal plasma: decrease
[1]; intraperitoneal injection, 60, 300, 1500 mg/kg, male SCID mice
  animal survival: not affected; also recorded: did not cause death
actin
  actin mRNA level: remained unchanged
